Measured values: US9220706B2, “Inhibition of leukemic stem cells by PP2A activating agents” (Ohio State Innovation Foundation, priority 2012, dated 2015)

Experiments:
β-catenin = β-catenin immunofluorescence; format: cell-based, human
Text: Immunofluorescence and proximity ligation assay. CD34^+/CD38^− cells from CML patient samples or LSK cells derived from induced leukemic mice were sorted, treated in liquid culture with the indicated drugs and cytospun onto glass slides. Slides were fixed in 3.7% formaldehyde, penneabilized with 0.05% Triton X-100, and stained with an Anti-®-catenin primary antibody (Cell signaling), a secondary goat F(ab′) anti-rabbit conjugated to Alexa Fluor 647, and the nuclear stain DAPI (Invitrogen); slides were mounted with Slowfade antifade reagent (Invitrogen). Microphotographs were obtained with a Zeiss LSM 510 confocal laser-scanning microscope with C-Apochromat 63/1.2 W objective. A minimum of three fields for each slide were acquired. For the Proximity Ligation Assay (PLA) CD34+/CD38− CML cells were treated, fixed, and permeabilized as described above. The slides were then simultaneously stained with a mix of mouse anti-PP2A (Millipore) and rabbit anti-SET (Globozyme) antibodies. The PLA procedure (Duolink; Olink Bioscience) was performed according to manufacturer instructions. An average of 20 z-stack ([…]) were captured with a Zeiss LSM 510 confocal laser-scanning microscope with C-Apochromat 63/1.2 W objective; at least three fields/slide were acquired. Three-dimensional projections were generated and positive signals/cell were calculated by ImageJ software (NIH).

[1] = tested on: β-catenin-driven (LEF/TCF) transcriptional activity; test: LEF/TCF reporter assay; format: cell-based, human; details: CD34^+/CD38^− CML and 32D-BCR/ABL cells
Description: LEF/TCF reporter assay. CD34+/CD38− CML cells were transduced with pBAR or pfuBAR (negative control) ®-catenin lentiviral reporter constructs (54), puromycin-selected and treated with the indicated drugs. Luciferase was measured using the Bright-Glo Luciferase system (Promega).

[2] = tested on: CFSE^max/CD34^+ CML cells; test: CFSE-mediated tracking of quiescent cells, CML; format: cell-based, human; details: CFSE-labeled CD34^+ CML cells; FTY720 at 2.5 μM
Description: CFSE-mediated tracking of cell division. Carboxyfluorescein diacetate succinimidyl diester (CFSE)-stained cells (CellTrace CFSE Proliferation Kit: Invitrogen) were cultured in the presence of the indicated drugs (dosed at time zero and at day three), and the cells were harvested after 3 or 6 days in culture, and stained with anti-CD34 PE, Annexin-V V450, and the viability stain 7-AAD (BD Bioscience) to determine the number of viable quiescent cells (CFSEmax/CD34^+/7-AAD− cells) and the percentage of quiescent and apoptosis-committed cells (CFSEmax/CD34+/Annexin V+/7-AAD±). Cells were sorted into dividing and quiescent populations for Western blot analysis. For assessment of mouse quiescent leukemic HSCs, Lin- cells from 8 week-induced SCLtTA/BCR-ABL1 mice were CFSE-stained and used as described above. Quiescent cells (CFSE^max/CD34^+) were reported as a fraction of the initial number of CD34^+ cells.

[3] = tested on: human CML CD34^+ BM cells in NSG mice; format: in vivo
Text: Engraftment of Human Normal and CML Cells in Immnunodeficient NSG Mice and Effect of FTY720 on Leukemic and Normal Hematopoietic Stem/Progenitor Cells. CD34+ cells were isolated from BM of CML patients (n=3) or from umbilical cord blood specimens (UCB; n=3). Note that CML samples were from patients in blastic transformation with ≧75% of Ph+ blasts. Sublethally irradiated (260 rads) 6-8 week-old NOD.Cg-Prkds^scid IL2rg^tm1WjI/SzJ (NSG, Jackson Laboratory) mice were intrafemorally injected with 1-3×10^6 CML or 10^5 UCB CD34^+ cells/mouse. The engraftment was assessed 8 weeks post-transplant by anti-human CD45 (BD Biosciences) and anti-mouse CD45.1 flow staining of intrafemoral BM aspirates and PB from tail vein. Wunderlich et al., Leukemia 24, 1785-1788 (2010). CML- and UCB-engrafted NSG mice were treated for 8 weeks (8-10 mice/group) with either FTY720 (10 mg/kg/day; i.p.) or PBS. Disease evolution and effect of FTY720 on HSC-enriched cell fraction (CD45^+/CD34^+/CD38^−), primitive progenitors (CD45+/CD34+), myeloid (CD45^+/CD34^+/CD33^+), B-cell (CD45^+/CD19^+) and T-cell (CD45^+/CD3^+) compartments were determined before and after 4/8 weeks of FTY720 treatment by FACS-mediated analysis of BM aspirates and/or PB cells. BCR-ABL1 transcript levels were monitored by qRT-PCR-mediated (Ipsogen) analysis of BCR-ABL1/human Abl1 ratios in total RNA samples derived from BM-aspirates of CML-engrafted animals at time of engraftment (time 0) and after 8 weeks of FTY720 treatment. […] These studies were performed by IRB and IACUC approved protocols.
Fluorescent in situ hybridization (FISH). Human CD45+ cells from intrafemoral BM aspirates of untreated and 8 weeks FTY720-treated NSG mice engrafted with CD34+ CML-BC and UCB cells, were FACS-isolated, dropped onto microscope slides, and fixed in a solution of three parts methanol and one part acetic acid. A triple color, dual fusion BCR/ABL1 FISH probe was applied according to the manufacturer's instructions (Kreatech Diagnostics). Hybridized slides were counterstained with DAPI and visualized under an Olympus BX41 microscope. Images were captured using a Hammamatsu Orca II CCD camera and SmartCapture X software (Digital Scientific).

[4] = BM of NSG mice, 4 and 8 weeks FTY720 10 mg/kg/day i.p.

Compound: CCCCCCCCc1ccc(CCC(N)(CO)CO)cc1 [FTY720]
- β-catenin degradation (β-catenin; CD34^+/CD38^− CML, leukemic LSK, and 32D-BCR/ABL cells): induced β-catenin degradation
- β-catenin expression (β-catenin; Ph^+ CD34^+/CD38^− cells): markedly decreased
- β-catenin transcriptional activity (LEF/TCF luciferase) [1]: markedly impaired
- decrease in CFSE^max (quiescent) CML HSCs [2]: 60-75%
- BCR-ABL1 transcripts (BCR-ABL1/hAbl1) ([3]; BM aspirates of FTY720-treated CML-engrafted mice): significant decrease
- reduction in CD45^+/CD34^+ progenitors [3, 4]: ~85%
- reduction in CD45^+/CD34^+/CD38^− HSCs [3, 4]: ~97%
- reduction in total hCD45^+ cells [3, 4]: ~83%
- Ph^+ hCD45^+/CD33^+ myeloid cells ([3]; CML-engrafted NSG mice): also reduced
- adverse effects or changes in animal behavior ([3]; mouse, in vivo, ip, 10 mg/kg/day): have not been noted
